According to patent US20210045385A1, “PYRIDAZINONE-SUBSTITUTED KETOXIMES AS HERBICIDES” (FMC Corporation, priority 2018, published 2021):

Columns and labels:
Format in all cases: in vivo
[1] = test system: barnyardgrass (Echinochloa crus-galli); test: Test C preemergence, visual plant response rating; settings: Test C, 0 is no effect, 100 is complete control
Method in brief: (§1)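 Visual injury on a 0 (no effect) to 100 (complete control) scale versus untreated controls, scored approximately 10 d after treatment under greenhouse conditions. Treatments used surfactant-containing non-phytotoxic solvent formulations, sprayed onto loam–sand soil preemergence or onto one- to two-leaf plants 2–10 cm tall postemergence.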

[2] = test system: ragweed (common ragweed, Ambrosia artemisiifolia); test: Test C preemergence, visual plant response rating; settings: Test C, 0 is no effect, 100 is complete control
Method in brief: as §1

[3] = test system: pigweed (Amaranthus retroflexus); test: Test C preemergence, visual plant response rating; settings: Test C, 0 is no effect, 100 is complete control
Method in brief: as §1

[4] = test system: Italian ryegrass (Lolium mutiflorum); test: Test C preemergence, visual plant response rating; settings: Test C, 0 is no effect, 100 is complete control
Method in brief: as §1

kochia (Bassia scoparia) [5] = test: Test C preemergence, visual plant response rating; settings: Test C, 0 is no effect, 100 is complete control
Method in brief: as §1

[6] = test system: foxtail, giant (giant foxtail, Setaria faberi); test: Test C preemergence, visual plant response rating; settings: Test C, 0 is no effect, 100 is complete control
Method in brief: as §1

[7] = test system: wheat (Triticum aestivum); test: Test C postemergence, visual plant response rating
Method in brief: as §1

[8] = test system: barnyardgrass (Echinochloa crus-galli); test: Test C postemergence, visual plant response rating
Method in brief: as §1

[9] = test system: ragweed (common ragweed, Ambrosia artemisiifolia); test: Test C postemergence, visual plant response rating
Method in brief: as §1

[10] = test system: pigweed (Amaranthus retroflexus); test: Test C postemergence, visual plant response rating
Method in brief: as §1

corn (Zea mays) = test: Test C postemergence, visual plant response rating
Method in brief: as §1

[11] = test system: Italian ryegrass (Lolium mutiflorum); test: Test C postemergence, visual plant response rating
Method in brief: as §1

kochia (Bassia scoparia) [12] = test: Test C postemergence, visual plant response rating
Method in brief: as §1

[13] = test system: foxtail, giant (giant foxtail, Setaria faberi); test: Test C postemergence, visual plant response rating
Method in brief: as §1

[14] = test system: blackgrass (Alopecurus myosuroides); test: Test C postemergence, visual plant response rating
Method in brief: as §1

[15] = test system: galium (catchweed bedstraw, Galium aparine); test: Test C postemergence, visual plant response rating
Method in brief: as §1

[16] = test system: barnyardgrass (Echinochloa crus-galli); test: Test D flooded paddy test, visual plant response rating; settings: 250 g ai/ha, scale 0 to 100 (0 no effect, 100 complete control), 13 to 15 d
Method in brief: (§2)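 Visual injury scores, 0 (no effect) to 100 (complete control), were assigned after 13 to 15 d in the greenhouse by comparison with controls. Test compounds had been added to paddy water covering soil by 3 cm at the 2-leaf stage.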

[17] = test system: sedge umbrella (small-flower umbrella sedge, Cyperus difformis); test: as above; settings: 250 g ai/ha, scale 0 to 100 (0 no effect, 100 complete control), 13 to 15 d
Method in brief: as §2

rice (Oryza sativa) = test: as above; settings: 250 g ai/ha, scale 0 to 100 (0 no effect, 100 complete control), 13 to 15 d
Method in brief: as §2

[18] = test system: duck salad (Heteranthera limosa); test: as above; settings: 250 g ai/ha, scale 0 to 100 (0 no effect, 100 complete control), 13 to 15 d
Method in brief: as §2

[19] = Test C, postemergence, 125 g ai/ha

SMILES | Barnyardgrass plant response rating (0 to 100 scale) ([1]; 31 g ai/ha) | Barnyardgrass plant response rating (0 to 100 scale) ([1]; 125 g ai/ha) | Ragweed plant response rating (0 to 100 scale) ([2]; 31 g ai/ha) | Ragweed plant response rating (0 to 100 scale) ([2]; 125 g ai/ha) | Pigweed plant response rating (0 to 100 scale) ([3]; 31 g ai/ha) | Pigweed plant response rating (0 to 100 scale) ([3]; 125 g ai/ha) | Ryegrass, Italian plant response rating (0 to 100 scale) ([4]; 31 g ai/ha) | Ryegrass, Italian plant response rating (0 to 100 scale) ([4]; 125 g ai/ha) | Kochia plant response rating (0 to 100 scale) (kochia (Bassia scoparia) [5]; 31 g ai/ha) | Kochia plant response rating (0 to 100 scale) (kochia (Bassia scoparia) [5]; 125 g ai/ha) | Foxtail, Giant plant response rating (0 to 100 scale) ([6]; 31 g ai/ha) | Foxtail, Giant plant response rating (0 to 100 scale) ([6]; 125 g ai/ha) | Wheat plant response rating (0 to 100 scale) ([7]; Postemergence, 31 g ai/ha) | Wheat plant response rating (0 to 100 scale) [7, 19] | Barnyardgrass plant response rating (0 to 100 scale) ([8]; Postemergence, 31 g ai/ha) | Barnyardgrass plant response rating (0 to 100 scale) [8, 19] | Ragweed plant response rating (0 to 100 scale) ([9]; Postemergence, 31 g ai/ha) | Ragweed plant response rating (0 to 100 scale) [9, 19] | Pigweed plant response rating (0 to 100 scale) ([10]; Postemergence, 31 g ai/ha) | Pigweed plant response rating (0 to 100 scale) [10, 19] | other results
Cc1nn(C)c(=O)c(/C(=N/OC(C)C)c2cccc3cc(Cl)ccc23)c1O [Compound 245] | 30 | 70 | 10 | 40 | 50 | 100 | 0 | 0 | 0 | 0 | 60 | 90 | 0 | 0 | 30 | 50 | 20 | 70 | 70 | 90 | Corn plant response rating (0 to 100 scale) (corn (Zea mays); Postemergence, 31 g ai/ha): 30; Corn plant response rating (0 to 100 scale) (corn (Zea mays); [19]): 30; Ryegrass, Italian plant response rating (0 to 100 scale) ([11]; Postemergence, 31 g ai/ha): 0; Ryegrass, Italian plant response rating (0 to 100 scale) [11, 19]: 0; Kochia plant response rating (0 to 100 scale) (kochia (Bassia scoparia) [12]; Postemergence, 31 g ai/ha): 0; Kochia plant response rating (0 to 100 scale) (kochia (Bassia scoparia) [12]; [19]): 20; Foxtail, Giant plant response rating (0 to 100 scale) ([13]; Postemergence, 31 g ai/ha): 30; Foxtail, Giant plant response rating (0 to 100 scale) [13, 19]: 80; Blackgrass plant response rating (0 to 100 scale) ([14]; Postemergence, 31 g ai/ha): 0; Blackgrass plant response rating (0 to 100 scale) [14, 19]: 0; Galium plant response rating (0 to 100 scale) ([15]; Postemergence, 31 g ai/ha): 70; Galium plant response rating (0 to 100 scale) [15, 19]: 90; Plant response rating, Barnyardgrass (Flood) [16]: 15; Plant response rating, Sedge, Umbrella (Flood) [17]: 50; Plant response rating, Rice (Flood) (rice (Oryza sativa)): 25; Plant response rating, Ducksalad (Flood) [18]: 30
C=CCO/N=C(/c1c(O)c(C)nn(C)c1=O)c1cccc2cc(Cl)ccc12 [Compound 246] | 60 | 80 | 100 | 90 | 90 | 100 | 30 | 60 | 0 | 0 | 80 | 80 | 0 | 0 | 40 | 70 | 80 | 100 | 70 | 80 | Corn plant response rating (0 to 100 scale) (corn (Zea mays); Postemergence, 31 g ai/ha): 20; Corn plant response rating (0 to 100 scale) (corn (Zea mays); [19]): 10; Ryegrass, Italian plant response rating (0 to 100 scale) ([11]; Postemergence, 31 g ai/ha): 0; Ryegrass, Italian plant response rating (0 to 100 scale) [11, 19]: 30; Kochia plant response rating (0 to 100 scale) (kochia (Bassia scoparia) [12]; Postemergence, 31 g ai/ha): 0; Kochia plant response rating (0 to 100 scale) (kochia (Bassia scoparia) [12]; [19]): 20; Foxtail, Giant plant response rating (0 to 100 scale) ([13]; Postemergence, 31 g ai/ha): 70; Foxtail, Giant plant response rating (0 to 100 scale) [13, 19]: 70; Blackgrass plant response rating (0 to 100 scale) ([14]; Postemergence, 31 g ai/ha): 50; Blackgrass plant response rating (0 to 100 scale) [14, 19]: 70; Galium plant response rating (0 to 100 scale) ([15]; Postemergence, 31 g ai/ha): 80; Galium plant response rating (0 to 100 scale) [15, 19]: 90; Plant response rating, Barnyardgrass (Flood) [16]: 90; Plant response rating, Sedge, Umbrella (Flood) [17]: 100; Plant response rating, Rice (Flood) (rice (Oryza sativa)): 90; Plant response rating, Ducksalad (Flood) [18]: 95
